# According to patent publication US20130310379A1, “MODULATORS OF METHYL MODIFYING ENZYMES, COMPOSITIONS AND USES THEREOF” (CONSTELLATION PHARMACEUTICALS, priority 2010, published 2013):
# pIC50: −log10 of the molar value.
# Molecular target: EZH2 (Homo sapiens, UniProt Q15910)
# Experiment: EZH2 assay: rPRC2 with biotinylated oligonucleosome substrates and 3H SAM, FlashPlate scintillation counting, IC50
# Format: biochemical
# Conditions: rPRC2, biotinylated oligonucleosome substrates, 3H SAM; read-out: EZH2 IC50
# Outline: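 IC50 from 4-parameter fit, baselines fixed at 0 and 100%. Compounds (top 80 uM, 2-fold series to 0.16 uM) pre-incubated 20 min with 2 nM EZH2-PRC2; 60-min methylation in pH 8.5 Tris with 0.2 uM 3H SAM, 0.2 uM oligonucleosomes, 3.6 uM H3K27me3 peptide.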
# EZH2, sequence (Q15910 whole entry): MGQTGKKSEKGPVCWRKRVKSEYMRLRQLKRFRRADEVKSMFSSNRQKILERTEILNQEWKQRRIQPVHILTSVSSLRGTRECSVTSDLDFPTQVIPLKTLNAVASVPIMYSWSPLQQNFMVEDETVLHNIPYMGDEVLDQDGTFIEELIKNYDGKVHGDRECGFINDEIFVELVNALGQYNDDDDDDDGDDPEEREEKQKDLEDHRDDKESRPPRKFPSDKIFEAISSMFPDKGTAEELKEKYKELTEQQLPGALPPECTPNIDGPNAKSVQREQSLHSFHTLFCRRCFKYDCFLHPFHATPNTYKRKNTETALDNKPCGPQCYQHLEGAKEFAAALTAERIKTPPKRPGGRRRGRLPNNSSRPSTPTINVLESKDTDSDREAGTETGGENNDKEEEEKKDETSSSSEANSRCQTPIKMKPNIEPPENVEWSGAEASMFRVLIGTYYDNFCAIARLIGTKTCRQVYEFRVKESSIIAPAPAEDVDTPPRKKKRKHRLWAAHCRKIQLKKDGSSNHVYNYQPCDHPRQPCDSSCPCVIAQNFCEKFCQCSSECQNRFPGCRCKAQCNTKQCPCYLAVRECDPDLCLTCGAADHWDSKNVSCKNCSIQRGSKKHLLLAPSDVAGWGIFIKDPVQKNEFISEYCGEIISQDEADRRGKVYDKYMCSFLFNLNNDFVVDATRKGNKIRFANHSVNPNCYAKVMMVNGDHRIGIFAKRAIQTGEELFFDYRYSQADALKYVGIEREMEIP
# EZH2, sequence (O75530 whole entry partner): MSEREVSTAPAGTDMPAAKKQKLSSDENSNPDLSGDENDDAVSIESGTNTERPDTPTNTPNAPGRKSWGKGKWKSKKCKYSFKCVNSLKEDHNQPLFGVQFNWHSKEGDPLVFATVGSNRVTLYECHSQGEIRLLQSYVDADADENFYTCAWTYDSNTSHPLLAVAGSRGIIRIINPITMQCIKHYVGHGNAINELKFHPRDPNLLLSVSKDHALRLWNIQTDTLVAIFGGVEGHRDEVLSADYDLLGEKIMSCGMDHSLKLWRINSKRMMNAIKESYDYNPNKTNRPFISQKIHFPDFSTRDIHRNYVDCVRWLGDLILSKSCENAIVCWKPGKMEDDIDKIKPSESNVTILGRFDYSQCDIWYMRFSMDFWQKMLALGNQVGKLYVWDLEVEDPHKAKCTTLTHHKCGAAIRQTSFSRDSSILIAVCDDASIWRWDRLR
# EZH2, sequence (Q15022 whole entry partner): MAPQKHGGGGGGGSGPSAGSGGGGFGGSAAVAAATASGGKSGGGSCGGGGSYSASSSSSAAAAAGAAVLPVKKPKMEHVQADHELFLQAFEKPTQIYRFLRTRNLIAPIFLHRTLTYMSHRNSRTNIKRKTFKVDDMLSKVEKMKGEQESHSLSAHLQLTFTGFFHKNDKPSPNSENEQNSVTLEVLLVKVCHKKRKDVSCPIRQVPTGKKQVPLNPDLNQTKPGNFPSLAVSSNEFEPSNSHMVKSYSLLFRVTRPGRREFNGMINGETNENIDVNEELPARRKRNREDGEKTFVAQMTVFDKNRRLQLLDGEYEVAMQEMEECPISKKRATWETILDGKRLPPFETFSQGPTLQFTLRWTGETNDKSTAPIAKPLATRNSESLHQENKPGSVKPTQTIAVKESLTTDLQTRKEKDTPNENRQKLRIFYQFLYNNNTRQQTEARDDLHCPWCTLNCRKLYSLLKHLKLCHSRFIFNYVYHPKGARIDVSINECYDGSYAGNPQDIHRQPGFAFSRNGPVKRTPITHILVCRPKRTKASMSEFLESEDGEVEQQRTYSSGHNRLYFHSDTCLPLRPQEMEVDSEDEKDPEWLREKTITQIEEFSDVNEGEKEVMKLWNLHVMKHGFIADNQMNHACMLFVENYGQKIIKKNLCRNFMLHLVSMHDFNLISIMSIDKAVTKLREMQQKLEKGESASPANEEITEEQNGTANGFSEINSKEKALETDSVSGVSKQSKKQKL
row,Structure (SMILES),pIC50
1,CC1(C)CC(NC(=O)c2ccc(Oc3c(F)cccc3C#N)cc2)CC(C)(C)N1 [Compound I-159],4.10 to 4.70
2,Cc1cc(Oc2ccccc2C#N)ccc1C(=O)NC1CC(C)(C)NC(C)(C)C1 [Compound I-243],4.10 to 4.70
3,Cc1cncc(-c2ccccc2Oc2ccc(C(=O)NC3CC(C)(C)NC(C)(C)C3)cc2Cl)c1 [Compound I-296],> 5.30
4,CC1(C)CC(NC(=O)c2ccc(Oc3cccc(-c4cn[nH]c4)c3C#N)c(C3CC3)c2)CC(C)(C)N1 [Compound I-439],> 5.30
5,CC1(C)CC(NC(=O)c2ccc(Oc3ccccc3C3CCNCC3)c(Cl)c2)CC(C)(C)N1 [Compound I-230],4.70 to 5.30
6,CN1CCN(C(=O)CCc2cccc(Oc3ccc(C(=O)NC4CC(C)(C)NC(C)(C)C4)cc3Cl)c2C#N)CC1 [Compound I-555],> 5.30
7,CC(=O)Nc1ccc(-c2cccc(OCc3ccc(C(=O)NC4CC(C)(C)NC(C)(C)C4)cc3)c2)cn1 [Compound I-593],> 5.30
8,CC1(C)CC(NC(=O)c2ccc(-c3ccc4ccncc4c3)c(Cl)c2)CC(C)(C)N1 [Compound I-377],4.70 to 5.30
9,Cc1ccc(-c2ccccc2Oc2ccc(C(=O)NC3CC(C)(C)NC(C)(C)C3)cc2Cl)cn1 [Compound I-295],> 5.30
10,COc1ncccc1-c1ccccc1Oc1ccc(C(=O)NC2CC(C)(C)NC(C)(C)C2)cc1Cl [Compound I-321],< 4.10
11,CC1(C)CC(C)(NC(=O)c2ccc(Oc3cccc(-c4ccnnc4)c3C#N)c(Cl)c2)CC(C)(C)N1 [Compound I-507],4.10 to 4.70
12,CC1(C)CC(NC(=O)c2ccc(Oc3ccccc3-c3cccnc3N)c(Cl)c2)CC(C)(C)N1 [Compound I-271],4.70 to 5.30
13,CC1(C)CC(NC(=O)c2cccc(COc3cccc(Br)c3)c2)CC(C)(C)N1 [Compound I-130],< 4.10
14,CC1(C)CC(NC(=O)c2ccc(Oc3ccccc3)c(OCc3ccccc3)c2)CC(C)(C)N1 [Compound I-269],4.10 to 4.70
15,CC(C#N)c1cccc(Oc2ccc(C(=O)NC3CC(C)(C)NC(C)(C)C3)cc2Cl)c1 (centres unmarked) [Compound I-479],4.10 to 4.70
16,CC1(C)CC(NC(=O)c2ccc(C(=O)Nc3ccccc3)cc2)CC(C)(C)N1 [Compound I-160],< 4.10
17,CCC(C)c1ccccc1Oc1ccc(C(=O)NC2CC(C)(C)NC(C)(C)C2)cc1 (centres unmarked) [Compound I-170],4.70 to 5.30
18,"CC1(C)CC(NC(=O)c2ccc(SCc3ccccc3)cc2)CC(C)(C)N1 [Compound I-45, 4-(Benzylthio)-N-(2,2,6,6-tetramethylpiperidin-4-yl)benzamide]",4.10 to 4.70
19,CC1(C)CC(NC(=O)c2ccc(COc3cccc(-c4ccc(N)nc4)c3)cc2)CC(C)(C)N1 [Compound I-1],> 5.30
20,CC1(C)CC(NC(=O)c2ccc(Oc3ccccc3C#N)c(C3CCCC3)c2)CC(C)(C)N1 [Compound I-238],4.70 to 5.30
21,CC1(C)CNCCC1NC(=O)c1ccc(Oc2ccccc2C#N)c(Cl)c1 (centres unmarked) [Compound I-406],< 4.10
22,CC(=O)N1CCC(c2cccc(Oc3ccc(C(=O)NC4CC(C)(C)NC(C)(C)C4)cc3Cl)c2C#N)CC1 [Compound I-537],> 5.30
23,CC1(C)CC(NC(=O)c2ccc(O[C@H]3CCNC3=O)c(Cl)c2)CC(C)(C)N1 [Compound I-457],< 4.10
24,CC1(C)CC(NC(=O)c2ccc(OCCc3ccccc3)cc2)CC(C)(C)N1 [Compound I-84],< 4.10
25,CC1(C)CC(NC(=O)c2ccc(Oc3ccc([N+](=O)[O-])cc3)cc2)CC(C)(C)N1 [Compound I-73],< 4.10

row,Structure (SMILES),pIC50
1,COc1ccc(OCc2ccc(C(=O)NC3CC(C)(C)NC(C)(C)C3)cc2)cc1 [Compound I-63],4.10 to 4.70
2,CC1(C)CC(NC(=O)c2ccc(Oc3ccccc3C#N)c(N3CCOCC3)c2)CC(C)(C)N1 [Compound I-196],> 5.30
3,"CC1(C)CC(NC(=O)c2ccc(Oc3ccccc3)c(Cl)c2)CC(C)(C)N1 [Compound I-49, 3-chloro-N-(2,2,6,6-tetramethylpiperidin-4-yl)-4-phenoxybenzamide]",4.10 to 4.70
4,CC1(C)CC(NC(=O)c2ccc(Oc3cccc(CN4CCCC4=O)c3)c(Cl)c2)CC(C)(C)N1 [Compound I-447],4.70 to 5.30
5,CC(=O)N1C(C)(C)CC(NC(=O)c2ccc(Oc3ccccc3C#N)c(Cl)c2)CC1(C)C [Compound I-290],< 4.10
6,COc1cccc(Oc2ccc(C(=O)NC3CC(C)(C)NC(C)(C)C3)cc2)c1 [Compound I-71],< 4.10
7,CC1(C)CC(NC(=O)c2cccc(-c3ccccc3)c2)CC(C)(C)N1 [Compound I-105],< 4.10
8,CC1(C)CC(NC(=O)c2ccc(Oc3ccccc3C#N)c(Cl)c2)CC(C)(C)N1 [Compound I-2],> 5.30
9,CC1(C)CC(NC(=O)c2ccc(Oc3ccccc3-c3cncnc3)c(Cl)c2)CC(C)(C)N1 [Compound I-279],> 5.30
10,CC1(C)CC(NC(=O)c2ccc(Oc3ccccc3-c3cccs3)c(Cl)c2)CC(C)(C)N1 [Compound I-277],> 5.30
11,CC1(C)CC(NC(=O)c2ccc(C(O)c3ccccc3)cc2)CC(C)(C)N1 (centres unmarked) [Compound I-432],< 4.10
12,CN(C)CCNC(=O)c1ccc(Oc2ccccc2)cc1 [Compound I-132],< 4.10
13,N#CCN1CCC(NC(=O)c2ccc(Oc3cccc(-c4ccnnc4)c3C#N)c(Cl)c2)CC1 [Compound I-475],< 4.10
14,CC1(C)CC(NC(=O)c2ccc(COCc3ccccc3)cc2)CC(C)(C)N1 [Compound I-62],4.10 to 4.70
15,CC1(C)CC(NC(=O)c2ccc(Oc3ccc4ncccc4c3)cc2)CC(C)(C)N1 [Compound I-172],< 4.10
16,Cc1cc(C(=O)NC2CC(C)(C)NC(C)(C)C2)ccc1Oc1cccc(CC#N)c1 [Compound I-345],> 5.30
17,CC1(C)CC(NC(=O)c2ccc(OCc3ccccc3F)cc2)CC(C)(C)N1 [Compound I-90],< 4.10
18,CC1(C)CC(NC(=O)c2ccc(Oc3cccc(CN4CCCCC4=O)c3)c(Cl)c2)CC(C)(C)N1 [Compound I-446],4.70 to 5.30
19,CC1(C)CC(NC(=O)c2ccc3oc4c(C#N)cccc4c3c2)CC(C)(C)N1 [Compound I-187],4.10 to 4.70
20,CC1(C)CC(NC(=O)c2ccc(Oc3cccc(-c4ccc[nH]4)c3C#N)c(Cl)c2)CC(C)(C)N1 [Compound I-337],> 5.30
21,CC1(C)CC(NC(=O)c2ccc(Oc3ccc4[nH]ccc4c3)cc2)CC(C)(C)N1 [Compound I-82],< 4.10
22,Cc1cccc(C)c1OCc1ccc(C(=O)NC2CC(C)(C)NC(C)(C)C2)cc1 [Compound I-23],4.10 to 4.70
23,CC1(C)CC(NC(=O)c2ccc(Oc3cccc(CC#N)c3-c3cncnc3)c(Cl)c2)CC(C)(C)N1 [Compound I-444],> 5.30
24,CC1(C)CC(NC(=O)c2ccc(Oc3cccc(C(N)=O)c3C#N)c(Cl)c2)CC(C)(C)N1 [Compound I-394],4.70 to 5.30
25,CC1(C)CC(NC(=O)c2ccc(COc3cccnc3)cc2)CC(C)(C)N1 [Compound I-36],4.10 to 4.70

row,Structure (SMILES),pIC50
1,CC1(C)CC(NC(=O)c2ccc(COc3cccc(-c4cccnc4)c3)cc2)CC(C)(C)N1 [Compound I-7],4.70 to 5.30
2,CC1(C)CC(NC(=O)c2ccc(Oc3cccc(C4CCNCC4)c3C#N)c(Cl)c2)CC(C)(C)N1 [Compound I-535],> 5.30
3,CCOC(=O)N1CCC(NC(=O)c2ccc(Oc3ccccc3C#N)c(Cl)c2)CC1 [Compound I-281],< 4.10
4,CC(Cc1cccc(Oc2ccc(C(=O)NC3CC(C)(C)NC(C)(C)C3)cc2Cl)c1C#N)C(N)=O (centres unmarked) [Compound I-559],> 5.30
5,CNC(=O)c1ccccc1Oc1ccc(C(=O)NC2CC(C)(C)NC(C)(C)C2)cc1Cl [Compound I-285],4.10 to 4.70
6,CC1(C)CC(NC(=O)c2ccc(COc3cccc(-c4cnc(N)nc4)c3)cc2)CC(C)(C)N1 [Compound I-3],> 5.30
7,CC1(C)CC(NC(=O)c2cccc(COc3ccccc3)c2)CC(C)(C)N1 [Compound I-111],< 4.10
8,CC1(C)CC(NC(=O)c2ccc(Oc3ccccn3)cc2)CC(C)(C)N1 [Compound I-56],4.10 to 4.70
9,CC1(C)CC(CC(=O)O)(NC(=O)c2ccc(Oc3cccc(-c4ccnnc4)c3C#N)c(Cl)c2)CC(C)(C)N1 [Compound I-482],4.10 to 4.70
10,CC1(C)CC(NC(=O)c2ccc(Oc3cccc4ncccc34)cc2)CC(C)(C)N1 [Compound I-222],< 4.10
11,CC1(C)CC(NC(=O)c2ccc(COc3cccc(-c4cccc(C#N)c4)c3)cc2)CC(C)(C)N1 [Compound I-51],4.10 to 4.70
12,CC1(C)CC(NC(=O)c2ccc(Oc3ccc(F)cc3C#N)c(Cl)c2)CC(C)(C)N1 [Compound I-359],4.70 to 5.30
13,CCc1cc(C(=O)NC2CC(C)(C)NC(C)(C)C2)ccc1Oc1ccccc1C#N [Compound I-265],> 5.30
14,COC(=O)c1cncc(-c2ccccc2Oc2ccc(C(=O)NC3CC(C)(C)NC(C)(C)C3)cc2Cl)c1 [Compound I-322],> 5.30
15,CC1(C)CC(NC(=O)c2ccc(Oc3ccccc3-c3nccs3)c(Cl)c2)CC(C)(C)N1 [Compound I-278],> 5.30
16,CC1(C)CC(NC(=O)c2ccc(Oc3ccccc3C(=O)NCc3ccccc3)c(Cl)c2)CC(C)(C)N1 [Compound I-286],4.70 to 5.30
17,CC1(C)CC(NC(=O)c2ccc(COc3cccc(-c4cn[nH]c4)c3)cc2)CC(C)(C)N1 [Compound I-12],4.70 to 5.30
18,Cc1cc(C)cc(OCc2ccc(C(=O)NC3CC(C)(C)NC(C)(C)C3)cc2)c1 [Compound I-9],4.70 to 5.30
19,CC1(C)CC(NC(=O)c2ccc(Oc3ccccc3F)cc2)CC(C)(C)N1 [Compound I-40],4.10 to 4.70
20,CC1(C)CC(NC(=O)c2ccc3cc(Oc4ccccc4C#N)ccc3c2)CC(C)(C)N1 [Compound I-200],4.10 to 4.70
21,Cc1ncccc1Oc1ccc(C(=O)NC2CC(C)(C)NC(C)(C)C2)cc1 [Compound I-20],4.70 to 5.30
22,CC1(C)CC(NC(=O)c2ccc(Oc3cccc(NCC(N)=O)c3C#N)c(Cl)c2)CC(C)(C)N1 [Compound I-502],> 5.30
23,CC1(C)CC(NC(=O)c2ccc(COc3cccc(-c4cc[nH]c(=O)c4)c3)cc2)CC(C)(C)N1 [Compound I-11],4.70 to 5.30
24,CC1(C)CC(NC(=O)c2ccc(COc3cccc(-c4cnc5[nH]ccc5c4)c3)cc2)CC(C)(C)N1 [Compound I-5],> 5.30
